Source: ChEMBL document CHEMBL2380196, “New anticancer active and selective phenylene-bisbenzothiazoles: synthesis, antiproliferative evaluation and DNA binding” (Eur J Med Chem, 2013)
Activity calls are given as the source filed them. The rule behind the calls is not given here.

What was measured:
SW-620 [1] = test: Cell cycle arrest in human SW620 cells assessed as accumulation in S phase at 5 uM after 48 hrs using propidium iodide staining by flow cytometry relative to control; assay type: functional
[2] = Binding affinity to DNA (unknown origin) after 15 mins by DNase I footprinting assay
SW-620 [3] = test: Cell cycle arrest in human SW620 cells assessed as accumulation in sub-G1 phase at 10 uM after 24 hrs using propidium iodide staining by flow cytometry relative to control; assay type: functional
[4] = biological target: T1, DNA topoisomerase 1 (Homo sapiens) (UniProt P11387); test: Inhibition of human topoisomerase 1-mediated supercoiled pUC19 DNA relaxation assessed as formation of open circle form after 45 mins using ethidium bromide staining by agarose gel electrophoresis
T1 sequence (whole entry): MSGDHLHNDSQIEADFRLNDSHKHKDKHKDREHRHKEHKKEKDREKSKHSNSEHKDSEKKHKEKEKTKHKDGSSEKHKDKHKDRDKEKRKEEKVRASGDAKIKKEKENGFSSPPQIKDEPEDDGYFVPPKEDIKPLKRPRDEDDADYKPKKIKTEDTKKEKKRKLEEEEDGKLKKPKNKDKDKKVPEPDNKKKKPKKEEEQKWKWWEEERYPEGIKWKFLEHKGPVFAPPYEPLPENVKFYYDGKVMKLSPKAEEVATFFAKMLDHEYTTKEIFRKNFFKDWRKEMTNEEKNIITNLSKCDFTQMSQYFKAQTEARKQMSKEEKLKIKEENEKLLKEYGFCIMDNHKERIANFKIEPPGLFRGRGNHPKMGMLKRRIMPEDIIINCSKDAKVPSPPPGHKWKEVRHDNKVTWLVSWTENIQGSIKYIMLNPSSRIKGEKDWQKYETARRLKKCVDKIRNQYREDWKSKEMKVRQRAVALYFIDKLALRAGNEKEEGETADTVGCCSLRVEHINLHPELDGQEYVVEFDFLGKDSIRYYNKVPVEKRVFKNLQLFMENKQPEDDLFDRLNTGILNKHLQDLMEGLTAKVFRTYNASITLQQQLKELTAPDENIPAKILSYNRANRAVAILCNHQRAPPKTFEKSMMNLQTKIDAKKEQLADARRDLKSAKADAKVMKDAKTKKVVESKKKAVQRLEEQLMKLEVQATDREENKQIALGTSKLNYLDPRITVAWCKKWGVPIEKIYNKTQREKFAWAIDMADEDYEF

SW-620 [5] = test: Induction of apoptosis in human SW620 cells at 10 uM after 48 hrs using propidium iodide/Annexin-V staining by flow cytometry relative to control; assay type: functional
SW-620 [6] = test: Cell cycle arrest in human SW620 cells assessed as accumulation in S phase at 10 uM after 24 hrs using propidium iodide staining by flow cytometry relative to control; assay type: functional
SW-620 [7] = test: Induction of apoptosis in human SW620 cells at 10 uM after 24 hrs using propidium iodide/Annexin-V staining by flow cytometry relative to control; assay type: functional
SW-620 [8] = test: Cell cycle arrest in human SW620 cells assessed as accumulation in G2/M phase at 10 uM after 48 hrs using propidium iodide staining by flow cytometry relative to control; assay type: functional
MIA PaCa-2 = test: Induction of apoptosis in human MIAPaCa2 cells at 10 uM after 48 hrs using propidium iodide/Annexin-V staining by flow cytometry relative to control; assay type: functional
[9] = biological target: T1, DNA topoisomerase 1 (Homo sapiens); test: Inhibition of human topoisomerase 1-mediated supercoiled pUC19 DNA relaxation at 1 to 50 uM after 45 mins by agarose gel electrophoresis

SMILES	Activity (SW-620 [1]) [%]	Activity [2]	Activity (SW-620 [3]) [%]	inhibition [4]	Activity (SW-620 [5]) [%]	Activity (SW-620 [6]) [%]	Activity (SW-620 [7]) [%]	Activity (SW-620 [8]) [%]	Activity (MIA PaCa-2) [%]	inhibition [9]
Cl.Cl.c1cc(-c2nc3ccc(C4=NCCN4)cc3s2)cc(-c2nc3ccc(C4=NCCN4)cc3s2)c1	48.6	Active	45.3	Active	95	65.6	8	6.8	–	–
Cl.Cl.c1cc2nc(-c3ccc(-c4nc5ccc(C6=NCCN6)cc5s4)cc3)sc2cc1C1=NCCN1	–	–	–	–	–	–	–	–	4	Active
